Reference: patent publication US9920030B2 (priority 2006, dated 2018)
Like-named read-outs stand apart in the source and are kept apart here.

Experiments:
[1] = tested on: Phytophthora infestans (the causal agent of tomato late blight); experiment: whole plant or invertebrate; assay type: in vivo
[2] = tested on: Phytophthora infestans (the causal agent of tomato late blight); experiment: whole plant or invertebrate; assay type: in vivo; remark: listed apart in the source
[3] = tested on: Plasmopara vilicola (the causal agent of grape downy mildew); experiment: Test A: grape downy mildew, test suspension sprayed on grape seedlings after inoculation, visual disease rating; assay type: in vivo
Outline: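 Curative spray: spores applied first, plants kept 24 h in saturated air at 20 °C and dried before treatment, then 5 days at 20 °C plus 24 h saturated. Suspension: acetone (3% of volume) in 1:1 acetone/water, 250 ppm Trem 014, sprayed to run-off (200 ppm ≈ 500 g/ha); visual 0–100 control rating.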

[4] = Phytophthora infestans, 96 h, read-out: Percent Disease Control, Test C
[5] = Phytophthora infestans, 144 h, read-out: Percent Disease Control, Test B
[6] = Plasmopara, 144 h, * tested at 40 ppm, read-out: Percent Disease Control, Test A
[7] = compounds without asterisk (application rate not given), 100 = 100% disease control, 0 = no control relative to the controls

Cc1cc(C(F)(F)F)nn1CC(=O)N1CCC(c2nc(C3=NOC(C)(c4ccccc4)C3)cs2)CC1 (centres unmarked) [Compound 15, 1-[4-[4-(4,5-dihydro-5-methyl-5-phenyl-3-isoxazolyl)-2-thiazolyl]-1-piperidinyl]-2-[5-methyl-3-(trifluoromethyl)-1H-pyrazol-1-yl]ethanone]
melting point: 97 to 100 °C

COc1ccc(C2CC(c3csc(C4CCN(C(=O)Cn5nc(C(F)(F)F)cc5C)CC4)n3)=NO2)cc1 (centres unmarked) [Compound 18, 1-[4-[4-[4,5-dihydro-5-(4-methoxyphenyl)-3-isoxazolyl]-2-thiazolyl]-1-piperidinyl]-2-[5-methyl-3-(trifluoromethyl)-1H-pyrazol-1-yl]ethanone]
pest or weed control at 40 ppm [1, 4]: 99% | melting point: 119 to 124 °C | pest or weed control at 40 ppm [2, 5]: 100% | pest or weed control at 40 ppm [3, 6]: 100%

Cc1cc(C(F)(F)F)nn1CC(=O)N1CCC(c2nc(C3=NOC4c5ccccc5CCC34)cs2)CC1 (centres unmarked) [Compound 16, 2-[5-methyl-3-(trifluoromethyl)-1H-pyrazol-1-yl]-1-[4-[4-(3a,4,5,9b-tetrahydronaphth[2,1-d]isoxazol-3-yl)-2-thiazolyl]-1-piperidinyl]ethanone]
melting point: 162 to 165 °C

CCc1cc(C(F)(F)F)nn1CC(=O)N1CCC(c2nc(C3=NOC(c4ccccc4)C3)cs2)CC1 (centres unmarked) [Compound 19, 1-[4-[4-(4,5-dihydro-5-phenyl-3-isoxazolyl)-2-thiazolyl]-1-piperidinyl]-2-[5-ethyl-3-(trifluoromethyl)-1H-pyrazol-1-yl]ethanone]
pest or weed control at 40 ppm [1, 4]: 99% | melting point: 128 to 133 °C | pest or weed control at 40 ppm [2, 5]: 100% | pest or weed control at 40 ppm [3, 6]: 100%

O=C(Cn1nc(C(F)(F)F)cc1C(F)(F)F)N1CCC(c2nc(C3=NOC(c4ccccc4)C3)cs2)CC1 (centres unmarked) [Compound 22, 2-[3,5-bis(trifluoromethyl)-1H-pyrazol-1-yl]-1-[4-[4-(4,5-dihydro-5-phenyl-3-isoxazolyl)-2-thiazolyl]-1-piperidinyl]ethanone]
pest or weed control at 40 ppm [1, 4]: 99% | melting point: 130 to 133 °C | pest or weed control at 40 ppm [2, 5]: 100% | pest or weed control at 40 ppm [3, 6]: 100%

Cc1cc(C(F)(F)F)nn1CC(=O)N1CCC(c2nc(-c3ccc(-c4ccccc4)cc3)cs2)CC1 [Compound 26]
Percent Disease Control, Test C [1, 7]: 33% | Percent Disease Control, Test B [2, 7]: 83% | Percent Disease Control, Test A [3, 7]: 76%

Cc1cc(C(F)(F)F)nn1CC(=O)N1CCC(c2nc(C3=NOC(c4ccccc4)C3C)cs2)CC1 (centres unmarked) [Compound 25]
Percent Disease Control, Test C ([1]; * tested at 40 ppm): 99% | Percent Disease Control, Test B ([2]; * tested at 40 ppm): 100% | Percent Disease Control, Test A ([3]; * tested at 40 ppm): 100%

Cc1cc(C(F)(F)F)nn1CC(=O)N1CCC(c2nc(C3=NOC(CC(C)(C)C)C3)cs2)CC1 (racemic) [Compound 28]
Percent Disease Control, Test C [1, 7]: 94% | Percent Disease Control, Test B [2, 7]: 100% | Percent Disease Control, Test A [3, 7]: 99%

Cc1cc(C(F)(F)F)nn1CC(=O)N1CCC(c2nc(C3=NOC(N4C(=O)OC(C)(C)C4=O)C3)cs2)CC1 (centres unmarked) [Compound 223]
Percent Disease Control, Test C [1, 7]: 100% | Percent Disease Control, Test B [2, 7]: 100% | Percent Disease Control, Test A [3, 7]: 100%

O=C(Cn1nc(C(F)(F)F)cc1Cl)N1CCC(c2nc(C3=NO[C@]4(CCc5ccccc54)C3)cs2)CC1 [Compound 232, 2-[5-chloro-3-(trifluoromethyl)-1H-pyrazol-1-yl]-1-[4-[4-[(1R)-2,3-dihydrospiro[1-indene-1,5′(4′H)-isoxazol]-3′-yl]-2-thiazolyl]-1-piperidinyl]ethanone]
Percent Disease Control, Test C ([1]; ** tested at l0 ppm): 100% | Percent Disease Control, Test B ([2]; ** tested at l0 ppm): 100% | Percent Disease Control, Test A ([3]; ** tested at l0 ppm): 100%

Cc1cc(C(F)(F)F)nn1CC(=O)N1CCC(c2nc(C3=NOC(N4C(=O)C(=O)c5ccccc54)C3)cs2)CC1 (centres unmarked) [Compound 222]
Percent Disease Control, Test C [1, 7]: 100% | Percent Disease Control, Test B [2, 7]: 100% | Percent Disease Control, Test A [3, 7]: 100%

Cc1cc(C(F)(F)F)nn1CC(=O)N1CCC(c2nc(C3=NOC4(CCSc5ccccc54)C3)cs2)CC1 (centres unmarked) [Compound 102, 1-[4-[4-(2,3-dihydrospiro[4H-1-benzothiopyran-4,5′(4′H)-isoxazol]-3′-yl)-2-thiazolyl]-1-piperidinyl]-2-[5-methyl-3-(trifluoromethyl)-1H-pyrazol-1-yl]ethanone]
pest or weed control at 40 ppm [1, 4]: 99% | pest or weed control at 40 ppm [2, 5]: 100% | pest or weed control at 40 ppm [3, 6]: 100%

Cc1cc(C(F)(F)F)nn1CC(=O)N1CCC(c2nc(-c3ccc(C(C)(C)C)cc3)cs2)CC1 [Compound 246]
Percent Disease Control, Test C ([1]; * tested at 40 ppm): 40% | Percent Disease Control, Test B ([2]; * tested at 40 ppm): 79% | Percent Disease Control, Test A ([3]; * tested at 40 ppm): 99%

Cc1cc(C(F)(F)F)nn1CC(=O)N1CCC(c2nc(C3=NOC(S(=O)(=O)c4ccccc4)C3)cs2)CC1 (centres unmarked) [Compound 117]
Percent Disease Control, Test C ([1]; * tested at 40 ppm): 99% | Percent Disease Control, Test B ([2]; * tested at 40 ppm): 100% | Percent Disease Control, Test A ([3]; * tested at 40 ppm): 93%

Cc1cc(C(F)(F)F)nn1CC(=O)N1CCC(c2nc(C3=NOC(C)(c4cc(Cl)sc4Cl)C3)cs2)CC1 (centres unmarked) [Compound 132]
Percent Disease Control, Test C ([1]; * tested at 40 ppm): 91% | Percent Disease Control, Test B ([2]; * tested at 40 ppm): 100% | Percent Disease Control, Test A ([3]; * tested at 40 ppm): 85%

Cc1cc(C(F)(F)F)nn1CC(=O)N1CCC(c2nc(C3=NOC4(CCCCc5ccccc54)C3)cs2)CC1 (centres unmarked) [Compound 192]
Percent Disease Control, Test C ([1]; * tested at 40 ppm): 99% | Percent Disease Control, Test B ([2]; * tested at 40 ppm): 100% | Percent Disease Control, Test A ([3]; * tested at 40 ppm): 99%

O=C(Cn1nc(C(F)(F)F)cc1Cl)N1CCC(c2nc(C3=NO[C@]4(CCCc5ccccc54)C3)cs2)CC1 (racemic) [Compound 230, 2-[5-chloro-3-(trifluoromethyl)-1H-pyrazol-1-yl]-1-[4-[4-[(1′R)-3′,4′-dihydrospiro[isoxazole-5(4H), 1′(2′H)-naphthalen]-3-yl]-2-thiazolyl]-1-piperidinyl]ethanone]
pest or weed control at 10 µg/mL [1, 4]: 100% | pest or weed control at 10 µg/mL [2, 5]: 100% | pest or weed control at 10 µg/mL ([3]; Plasmopara, 144 h, ** tested at l0 ppm, read-out: Percent Disease Control, Test A): 100%

Cc1cc(C(F)(F)F)nn1CC(=O)N1CCC(c2nc(C3=NOC4(CCCC(c5ccccc5)C4)C3)cs2)CC1 (mixture of isomers) [Compound 171]
Percent Disease Control, Test C ([1]; * tested at 40 ppm): 98% | Percent Disease Control, Test B ([2]; * tested at 40 ppm): 100% | Percent Disease Control, Test A ([3]; * tested at 40 ppm): 99%

Cc1cc(C(F)(F)F)nn1CC(=O)N1CCC(c2nc(C3=NOC(n4c(=O)n(C)c5ccccc54)C3)cs2)CC1 (centres unmarked) [Compound 275]
Percent Disease Control, Test C ([1]; ** tested at l0 ppm): 98% | Percent Disease Control, Test B ([2]; ** tested at l0 ppm): 100% | Percent Disease Control, Test A ([3]; ** tested at l0 ppm): 99%

Cc1cc(C(F)(F)F)n(CC(=O)N2CCC(c3nc(C4=NOC(c5ccccc5)C4)cs3)CC2)n1 (centres unmarked) [Compound 128, 1-[4-[4-(4,5-dihydro-5-phenyl-3-isoxazolyl)-2-thiazolyl]-1-piperidinyl]-2-[3-methyl-5-(trifluoromethyl)-1H-pyrazol-1-yl]ethanone]
pest or weed control at 40 ppm [1, 4]: 99% | pest or weed control at 40 ppm [2, 5]: 100% | pest or weed control at 40 ppm [3, 6]: 100%

Cc1cc(C(F)(F)F)nn1CC(=O)N1CCC(c2nc(C3=NOC4(CCC(c5ccccc5)C4)C3)cs2)CC1 (single isomer, unassigned) [Compound 158]
Percent Disease Control, Test C [1, 7]: 99% | Percent Disease Control, Test B [2, 7]: 100% | Percent Disease Control, Test A [3, 7]: 96%

Cc1cc(C(F)(F)F)nn1CC(=O)N1CCC(c2nc(C3=NO[C@@H](N4C(=O)c5ccccc5C4=O)C3)cs2)CC1 (racemic) [Compound 129]
Percent Disease Control, Test C ([1]; * tested at 40 ppm): 99% | Percent Disease Control, Test B ([2]; * tested at 40 ppm): 100% | Percent Disease Control, Test A ([3]; * tested at 40 ppm): 99%

Cc1cc(C(F)(F)F)nn1CC(=O)N1CCC(c2nc(C3=NOC4(CCCCC4c4ccccc4)C3)cs2)CC1 (mixture of isomers) [Compound 170]
Percent Disease Control, Test C ([1]; * tested at 40 ppm): 93% | Percent Disease Control, Test B ([2]; * tested at 40 ppm): 100% | Percent Disease Control, Test A ([3]; * tested at 40 ppm): 99%

Cc1cc(C(F)(F)F)nn1CC(=O)N1CCC(c2nc(C3=NOC4(CCCC(C#N)C4)C3)cs2)CC1 (single isomer, unassigned) [Compound 254]
Percent Disease Control, Test C ([1]; * tested at 40 ppm): 93% | Percent Disease Control, Test B ([2]; * tested at 40 ppm): 100% | Percent Disease Control, Test A ([3]; * tested at 40 ppm): 100%

Cc1cc(C(F)(F)F)nn1CC(=O)N1CCC(c2nc(C3=NOC4(CCc5ccccc54)C3)cs2)CC1 (centres unmarked) [Compound 44, 1-[4-[4-(2,3-dihydrospiro[1H-indene-1,5′(4′H)-isoxazol]-3′-yl)-2-thiazolyl]-1-piperidinyl]-2-[5-methyl-3-(trifluoromethyl)-1H-pyrazol-1-yl]ethanone]
pest or weed control at 40 ppm [1, 4]: 99% | pest or weed control at 40 ppm [2, 5]: 100% | pest or weed control at 40 ppm [3, 6]: 100%
